Measured values taken from patent publication US20170189504A1, “NOVEL PEPTIDES AND COMBINATION OF PEPTIDES FOR USE IN IMMUNOTHERAPY AGAINST VARIOUS CANCERS” (immatics biotechnologies GmbH, priority 2015, published 2017).

Test system: HLA-A*02
Assay: MHC binding assay, UV-ligand exchange with β2m ELISA, HLA-A*02 (Table 20)
Design: species or system human
Conditions: binding to HLA-A*02 ranged by peptide exchange yield (UV-ligand exchange, β2m ELISA)
From the text: Candidate peptides for T cell based therapies according to the present invention were further tested for their MHC binding capacity (affinity). The individual peptide-MHC complexes were produced by UV-ligand exchange, where a UV-sensitive peptide is cleaved upon UV-irradiation, and exchanged with the peptide of interest as analyzed. Only peptide candidates that can effectively bind and stabilize the peptide-receptive MHC molecules prevent dissociation of the MHC complexes. To determine the yield of the exchange reaction, an ELISA was performed based on the detection of the light chain ((β2m) of stabilized MHC complexes. The assay was performed as generally described in Rodenko et al. (Rodenko et al., 2006).
96 well MAXISorp plates (NUNC) were coated over night with 2 ug/ml streptavidin in PBS at room temperature, washed 4× and blocked for 1 h at 37° C. in 2% BSA containing blocking buffer. Refolded HLA-A*02:01/MLA-001 monomers served as standards, covering the range of 15-500 ng/ml. Peptide-MHC monomers of the UV-exchange reaction were diluted 100 fold in blocking buffer. Samples were incubated for 1 h at 37° C., washed four times, incubated with 2 ug/ml HRP conjugated anti-β2m for 1 h at 37° C., washed again and detected with TMB solution that is stopped with […]. Absorption was measured at 450 nm. Candidate peptides that show a high exchange yield (preferably higher than 50%, most preferred higher than 75%) are generally preferred for a generation and production of antibodies or fragments thereof, and/or T cell receptors or fragments thereof, as they show sufficient avidity to the MHC molecules and prevent dissociation of the MHC complexes.

Row | Substance | Peptide exchange
1 | 250 (SLAPATPEV; listed as Homo sapiens) [compound 250] | +++ (50%-75% = +++)
2 | 79 (VTFKEYVTV; listed as Homo sapiens) [compound 79] | ++ (20%-49% = ++)
3 | 153 (FISERVEVV; listed as Homo sapiens) [compound 153] | ++++ (≧75% = ++++)
4 | 36 (SLADTNSLAVV; listed as Homo sapiens) [compound 36] | +++ (50%-75% = +++)
5 | 69 (FLAVGLVDV; listed as Homo sapiens) [compound 69] | +++ (50%-75% = +++)
6 | 57 (TVFTDHMLTV; listed as Homo sapiens) [compound 57] | ++ (20%-49% = ++)
7 | 88 (AQADHLPQL; listed as Homo sapiens) [compound 88] | ++ (20%-49% = ++)
8 | 76 (AVGPVHNSV; listed as Homo sapiens) [compound 76] | ++ (20%-49% = ++)
9 | 28 (SLPNGKPVSV; listed as Homo sapiens) [compound 28] | +++ (50%-75% = +++)
10 | 114 (QLIQTLHAV; listed as Homo sapiens) [compound 114] | +++ (50%-75% = +++)
11 | 252 (RLMEICESL; listed as Homo sapiens) [compound 252] | +++ (50%-75% = +++)
12 | 115 (SLDPDTLPAV; listed as Homo sapiens) [compound 115] | ++ (20%-49% = ++)
13 | 99 (YLLQSVNQLLL; listed as Homo sapiens) [compound 99] | ++ (20%-49% = ++)
14 | 131 (VTSNSGILGV; listed as Homo sapiens) [compound 131] | +++ (50%-75% = +++)
15 | 51 (LLFSRLCGA; listed as Homo sapiens) [compound 51] | ++++ (≧75% = ++++)
16 | 111 (AIVDLIHDI; listed as Homo sapiens) [compound 111] | ++ (20%-49% = ++)
17 | 134 (GLAVPTPSV; listed as Homo sapiens) [compound 134] | +++ (50%-75% = +++)
18 | 260 (ILLEKILSL; listed as Homo sapiens) [compound 260] | +++ (50%-75% = +++)
19 | 98 (RLFPDFFTRVAL; listed as Homo sapiens) [compound 98] | ++ (20%-49% = ++)
20 | 132 (ILGEVLAQL; listed as Homo sapiens) [compound 132] | +++ (50%-75% = +++)

Row | Substance | Peptide exchange
21 | 3 (KLEENGDLYL; listed as Homo sapiens) [compound 3] | ++++ (≧75% = ++++)
22 | 34 (FLLATEVVTV; listed as Homo sapiens) [compound 34] | ++++ (≧75% = ++++)
23 | 54 (VLNPLITAV; listed as Homo sapiens) [compound 54] | +++ (50%-75% = +++)
24 | 157 (TLTSLLAQA; listed as Homo sapiens) [compound 157] | +++ (50%-75% = +++)
25 | 128 (TQSPATLSV; listed as Homo sapiens) [compound 128] | ++ (20%-49% = ++)
26 | 152 (MMVGDLLEV; listed as Homo sapiens) [compound 152] | +++ (50%-75% = +++)
27 | 237 (ALAPHLDDA; listed as Homo sapiens) [compound 237] | +++ (50%-75% = +++)
28 | 256 (SLGEEQFSV; listed as Homo sapiens) [compound 256] | ++ (20%-49% = ++)
29 | 19 (SISDNVWEV; listed as Homo sapiens) [compound 19] | +++ (50%-75% = +++)
30 | 155 (LLNPVVEFV; listed as Homo sapiens) [compound 155] | +++ (50%-75% = +++)
31 | 33 (YIKTELISV; listed as Homo sapiens) [compound 33] | +++ (50%-75% = +++)
32 | 73 (YTLREVDTV; listed as Homo sapiens) [compound 73] | ++ (20%-49% = ++)
33 | 83 (GQASYFYVA; listed as Homo sapiens) [compound 83] | ++ (20%-49% = ++)
34 | 239 (KMNESTRSV; listed as Homo sapiens) [compound 239] | ++ (20%-49% = ++)
35 | 25 (TMDSVLVTV; listed as Homo sapiens) [compound 25] | +++ (50%-75% = +++)
36 | 130 (SLLGGTFVGI; listed as Homo sapiens) [compound 130] | +++ (50%-75% = +++)
37 | 42 (LLDSVSRL; listed as Homo sapiens) [compound 42] | + (<20% = +)
38 | 119 (FIIQGLRSVGA; listed as Homo sapiens) [compound 119] | +++ (50%-75% = +++)
39 | 82 (FIFDEAEKL; listed as Homo sapiens) [compound 82] | + (<20% = +)
40 | 24 (TLDEKVAEL; listed as Homo sapiens) [compound 24] | +++ (50%-75% = +++)

Row | Substance | Peptide exchange
41 | 68 (SLSNRLYYL; listed as Homo sapiens) [compound 68] | +++ (50%-75% = +++)
42 | 61 (AIVKEIVNI; listed as Homo sapiens) [compound 61] | ++ (20%-49% = ++)
43 | 120 (VTPVTVSAV; listed as Homo sapiens) [compound 120] | + (<20% = +)
44 | 15 (YLDLSHNQL; listed as Homo sapiens) [compound 15] | +++ (50%-75% = +++)
45 | 145 (YLWATIQRI; listed as Homo sapiens) [compound 145] | +++ (50%-75% = +++)
46 | 136 (FLFGGVLMTL; listed as Homo sapiens) [compound 136] | ++ (20%-49% = ++)
47 | 86 (SVDSHFQEV; listed as Homo sapiens) [compound 86] | ++ (20%-49% = ++)
48 | 242 (WLYGEDHQI; listed as Homo sapiens) [compound 242] | ++ (20%-49% = ++)
49 | 255 (SLLHFTENL; listed as Homo sapiens) [compound 255] | +++ (50%-75% = +++)
50 | 259 (ILLPRIIEA; listed as Homo sapiens) [compound 259] | +++ (50%-75% = +++)
51 | 30 (AMIEEVFEA; listed as Homo sapiens) [compound 30] | ++ (20%-49% = ++)
52 | 87 (TIYKDFVYI; listed as Homo sapiens) [compound 87] | ++ (20%-49% = ++)
53 | 236 (STIAILNSV; listed as Homo sapiens) [compound 236] | +++ (50%-75% = +++)
54 | 113 (FLERGLESA; listed as Homo sapiens) [compound 113] | ++ (20%-49% = ++)
55 | 56 (FLHDEKEGIYI; listed as Homo sapiens) [compound 56] | +++ (50%-75% = +++)
56 | 48 (QVIEDSTGV; listed as Homo sapiens) [compound 48] | ++ (20%-49% = ++)
57 | 60 (ALFAPLVHL; listed as Homo sapiens) [compound 60] | +++ (50%-75% = +++)
58 | 108 (ILLKNLVTI; listed as Homo sapiens) [compound 108] | ++ (20%-49% = ++)
59 | 102 (VLLDIQEVFQI; listed as Homo sapiens) [compound 102] | +++ (50%-75% = +++)
